Calls of active or inactive are those of the source. No cut-off for these calls is given here.
How the values were obtained:
[1] = Antiinflammatory activity in mouse BMDM cells assessed as inhibition of IL1-beta production relative to control; assay type: functional
[2] = Antiinflammatory activity in mouse BMDM cells assessed as inhibition of TNF-alpha production relative to control; assay type: functional
[3] = Selectivity index, ratio of antiinflammatory activity in mouse BMDM cells assessed as inhibition of TNF-alpha production to antiinflammatory activity in mouse BMDM cells assessed as inhibition of IL1-beta production; assay type: functional
[4] = Selectivity index, ratio of IC50 for antiinflammatory activity in mouse BMDM cells assessed as inhibition of TNF-alpha production to IC50 for antiinflammatory activity in mouse BMDM cells assessed as inhibition of IL1-beta production; assay type: functional
[5] = Antiinflammatory activity in mouse BMDM cells assessed as inhibition of IL1-beta production; assay type: functional, cell-based
[6] = Antiinflammatory activity in mouse BMDM cells assessed as inhibition of TNF-alpha production; assay type: functional, cell-based
[7] = biological target: NACHT, LRR and PYD domains-containing protein 3 (Mus musculus) (UniProt Q8R4B8); test: Inhibition of NLRP3 inflammasome activation in LPS-primed mouse BMDM cells assessed as inhibition of LPS/ATP induced IL-1beta release by ELISA; assay type: cell-based
[8] = biological target: NACHT, LRR and PYD domains-containing protein 3 (Mus musculus) (UniProt Q8R4B8); test: Inhibition of NLRP3 inflammasome activation in LPS-primed immortalized mouse BMDM cells assessed as inhibition of LPS/ATP induced IL-1beta release by ELISA; assay type: cell-based
[9] = biological target: NACHT, LRR and PYD domains-containing protein 3 (Mus musculus) (UniProt Q8R4B8); test: Inhibition of NLRP3 inflammasome activation in LPS-primed immortalized mouse BMDM cells assessed as reduction in ATP-induced mature IL-1beta expression in supernatant at 5 to 20 uM by western blot analysis; assay type: cell-based; conditions: dose 5-20 µM
[10] = biological target: NACHT, LRR and PYD domains-containing protein 3 (Mus musculus) (UniProt Q8R4B8); test: Inhibition of NLRP3 inflammasome activation in LPS-primed immortalized mouse BMDM cells assessed as reduction in ATP-induced cleaved caspase-1 expression in supernatant at 5 to 20 uM by western blot analysis; assay type: cell-based; conditions: dose 5-20 µM
[11] = biological target: NACHT, LRR and PYD domains-containing protein 3 (Mus musculus) (UniProt Q8R4B8); test: Inhibition of NLRP3 inflammasome activation in LPS-primed immortalized mouse BMDM cells assessed as effect on ATP-induced NLRP3 level in cell lysate at 5 to 20 uM by western blot analysis; assay type: subcellular; conditions: dose 5-20 µM
[12] = biological target: NACHT, LRR and PYD domains-containing protein 3 (Mus musculus) (UniProt Q8R4B8); test: Inhibition of NLRP3 inflammasome activation in LPS-primed immortalized mouse BMDM cells assessed as effect on ATP-induced pro-IL-1beta level in cell lysate at 5 to 20 uM by western blot analysis; assay type: subcellular; conditions: dose 5-20 µM

Sequence of NACHT, LRR and PYD domains-containing protein 3 (Mus musculus) (Q8R4B8 whole entry, the tested form may be a part): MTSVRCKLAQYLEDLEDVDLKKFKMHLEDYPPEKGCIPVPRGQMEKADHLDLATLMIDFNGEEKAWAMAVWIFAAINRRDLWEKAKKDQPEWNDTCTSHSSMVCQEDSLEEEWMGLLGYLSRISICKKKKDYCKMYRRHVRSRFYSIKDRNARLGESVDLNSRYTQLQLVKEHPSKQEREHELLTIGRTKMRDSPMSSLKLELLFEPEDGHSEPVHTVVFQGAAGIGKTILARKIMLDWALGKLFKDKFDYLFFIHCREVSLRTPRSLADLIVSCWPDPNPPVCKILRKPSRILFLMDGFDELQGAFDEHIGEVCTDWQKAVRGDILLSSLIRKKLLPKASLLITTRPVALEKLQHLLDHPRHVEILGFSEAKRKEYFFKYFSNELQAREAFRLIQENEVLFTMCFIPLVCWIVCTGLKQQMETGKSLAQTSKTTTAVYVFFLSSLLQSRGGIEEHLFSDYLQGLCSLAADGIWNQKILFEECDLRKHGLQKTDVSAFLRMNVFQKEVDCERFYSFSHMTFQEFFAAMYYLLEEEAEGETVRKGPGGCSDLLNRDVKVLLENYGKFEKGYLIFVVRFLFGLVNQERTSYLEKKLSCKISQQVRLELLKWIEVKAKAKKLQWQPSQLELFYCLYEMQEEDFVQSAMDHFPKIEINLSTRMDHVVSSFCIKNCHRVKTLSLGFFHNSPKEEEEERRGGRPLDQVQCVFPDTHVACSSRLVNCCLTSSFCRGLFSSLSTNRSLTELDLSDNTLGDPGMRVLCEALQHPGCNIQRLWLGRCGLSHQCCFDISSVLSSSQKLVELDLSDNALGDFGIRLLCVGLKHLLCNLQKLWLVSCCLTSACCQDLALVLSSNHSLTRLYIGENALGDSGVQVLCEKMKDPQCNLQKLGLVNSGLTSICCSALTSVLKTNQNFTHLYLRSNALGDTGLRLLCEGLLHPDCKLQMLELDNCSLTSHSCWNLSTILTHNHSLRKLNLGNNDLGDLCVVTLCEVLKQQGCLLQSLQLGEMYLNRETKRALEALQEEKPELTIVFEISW

## CN(C)c1c(C(N)=O)nnn1Cc1cc(Cl)c(C(=O)c2ccc(Cl)cc2)c(Cl)c1
[1]
  inhibition (INH): 39.86%
[2]
  inhibition (INH): 45.89%
[3]
  Selectivity Index: 0.87

## CCC(CC)C(=O)N(C(=O)C(CC)CC)c1c(C(N)=O)nnn1Cc1cc(Cl)c(C(=O)c2ccc(Cl)cc2)c(Cl)c1
[1]
  inhibition (INH): -22.74%
[2]
  inhibition (INH): 12.68%

## CC(C)(C)C(=O)N(C(=O)C(C)(C)C)c1c(C(N)=O)nnn1Cc1cc(Cl)c(C(=O)c2ccc(Cl)cc2)c(Cl)c1
[1]
  inhibition (INH): -8.41%
[2]
  inhibition (INH): 17.92%

## CCCC(=O)Nc1c(C(N)=O)nnn1Cc1cc(Cl)c(C(=O)c2ccc(Cl)cc2)c(Cl)c1
[1]
  inhibition (INH): 74.89%
[2]
  inhibition (INH): 47.9%
[3]
  Selectivity Index: 1.56
[4]
  Ratio IC50: 2.25
[5]
  IC50: 11.9 µM
[6]
  IC50: 26.8 µM

## Nc1c(C(=O)N2CCCCC2)nnn1Cc1cc(Cl)c(C(=O)c2ccc(Cl)cc2)c(Cl)c1
[1]
  inhibition (INH): 27.12%
[2]
  inhibition (INH): 52.43%
[3]
  Selectivity Index: 0.51

## NC(=O)c1nnn(Cc2ccccc2)c1N
[1]
  inhibition (INH): -6.29%
[2]
  inhibition (INH): -12.61%

## CNC(=O)c1nnn(Cc2cc(Cl)c(C(=O)c3ccc(Cl)cc3)c(Cl)c2)c1N
[1]
  inhibition (INH): 58.34%
[2]
  inhibition (INH): 46.35%
[3]
  Selectivity Index: 1.26

## CNc1c(C(N)=O)nnn1Cc1cc(Cl)c(C(=O)c2ccc(Cl)cc2)c(Cl)c1
[1]
  inhibition (INH): 57.66%
[2]
  inhibition (INH): 15.53%
[3]
  Selectivity Index: 3.71
[4]
  Ratio IC50: >18.22
[7]
  inhibition: Dose-Dependent Effect
[8]
  inhibition: Dose-Dependent Effect
[9]
  inhibition: Active
[5]
  IC50: 5.49 µM
[6]
  IC50: > 100 µM
[10]
  inhibition: Active
[11]
  inhibition: inactive
[12]
  inhibition: inactive

## CC(C)(C)C(=O)Nc1c(C(N)=O)nnn1Cc1cc(Cl)c(C(=O)c2ccc(Cl)cc2)c(Cl)c1
[1]
  inhibition (INH): 68.75%
[2]
  inhibition (INH): 92.89%
[3]
  Selectivity Index: 0.74

## NC(=O)c1nnn(Cc2cc(Cl)c(C(=O)c3ccc(Cl)cc3)c(Cl)c2)c1NC(=O)CCCBr
[1]
  inhibition (INH): 53.09%
[2]
  inhibition (INH): -2.72%
[3]
  Selectivity Index: 19.51

## NC(=O)c1nnn(Cc2ccc(-c3ccccc3)cc2)c1N
[1]
  inhibition (INH): -18.17%
[2]
  inhibition (INH): 0.39%

## NC(=O)c1nnn(Cc2cc(Cl)c(C(=O)c3ccc(Cl)cc3)c(Cl)c2)c1N(C(=O)C1CC1)C(=O)C1CC1
[1]
  inhibition (INH): -36.41%
[2]
  inhibition (INH): 48.7%

## N#Cc1nnn(Cc2cc(Cl)c(C(=O)c3ccc(Cl)cc3)c(Cl)c2)c1N
[1]
  inhibition (INH): 64.01%
[2]
  inhibition (INH): 82.32%
[3]
  Selectivity Index: 0.78

## CCNc1c(C(N)=O)nnn1Cc1cc(Cl)c(C(=O)c2ccc(Cl)cc2)c(Cl)c1
[1]
  inhibition (INH): 57.89%
[2]
  inhibition (INH): 57.8%
[3]
  Selectivity Index: 1

## CCNC(=O)c1nnn(Cc2cc(Cl)c(C(=O)c3ccc(Cl)cc3)c(Cl)c2)c1N
[1]
  inhibition (INH): 53.9%
[2]
  inhibition (INH): 75.89%
[3]
  Selectivity Index: 0.71

## CC(C)C(=O)Nc1c(C(N)=O)nnn1Cc1cc(Cl)c(C(=O)c2ccc(Cl)cc2)c(Cl)c1
[1]
  inhibition (INH): 30.69%
[2]
  inhibition (INH): 7.91%
[3]
  Selectivity Index: 3.88

## Nc1c(C(=O)N2CCCC2)nnn1Cc1cc(Cl)c(C(=O)c2ccc(Cl)cc2)c(Cl)c1
[1]
  inhibition (INH): 33.52%
[2]
  inhibition (INH): 51.44%
[3]
  Selectivity Index: 0.65

## CN(C)C(=O)c1nnn(Cc2cc(Cl)c(C(=O)c3ccc(Cl)cc3)c(Cl)c2)c1N
[1]
  inhibition (INH): 43.42%
[2]
  inhibition (INH): 57.9%
[3]
  Selectivity Index: 0.75

## NC(=O)c1nnn(Cc2cc(Cl)c(C(=O)c3ccc(Cl)cc3)c(Cl)c2)c1N [CARBOXYAMIDOTRIAZOLE]
[1]
  inhibition (INH): 71.94%
[2]
  inhibition (INH): 87.54%
[3]
  Selectivity Index: 0.82

## Nc1c(C(=O)NCCOCCO)nnn1Cc1cc(Cl)c(C(=O)c2ccc(Cl)cc2)c(Cl)c1
[1]
  inhibition (INH): 62%
[2]
  inhibition (INH): 5.3%
[3]
  Selectivity Index: 1.12

## Nc1c(C(=O)NCc2ccccc2)nnn1Cc1cc(Cl)c(C(=O)c2ccc(Cl)cc2)c(Cl)c1
[1]
  inhibition (INH): 21.22%
[2]
  inhibition (INH): 7.59%
[3]
  Selectivity Index: 2.8

## NC(=O)c1nnn(Cc2cc(Cl)c(C(=O)c3ccc(Cl)cc3)c(Cl)c2)c1NC(=O)CCBr
[1]
  inhibition (INH): 87.06%
[2]
  inhibition (INH): 81.52%
[3]
  Selectivity Index: 1.07
[4]
  Ratio IC50: 1.96
[5]
  IC50: 4.97 µM
[6]
  IC50: 9.77 µM

## NC(=O)c1nnn(Cc2ccc(C(=O)c3ccccc3)cc2)c1N
[1]
  inhibition (INH): 1.36%
[2]
  inhibition (INH): -16.37%

## NC(=O)c1nnn(Cc2cc(Cl)c(C(=O)c3ccc(Cl)cc3)c(Cl)c2)c1NC(=O)C1CC1
[1]
  inhibition (INH): 57.13%
[2]
  inhibition (INH): 73.51%
[3]
  Selectivity Index: 0.78

## CCC(=O)N(C(=O)CC)c1c(C(N)=O)nnn1Cc1cc(Cl)c(C(=O)c2ccc(Cl)cc2)c(Cl)c1
[1]
  inhibition (INH): -23.37%
[2]
  inhibition (INH): 11.95%

## CCC(CC)C(=O)Nc1c(C(N)=O)nnn1Cc1cc(Cl)c(C(=O)c2ccc(Cl)cc2)c(Cl)c1
[1]
  inhibition (INH): 77.01%
[2]
  inhibition (INH): 5.73%
[3]
  Selectivity Index: 13.43
[4]
  Ratio IC50: >12.37
[5]
  IC50: 8.08 µM
[6]
  IC50: > 100 µM

## NC(=O)c1nnn(Cc2ccc3ccccc3c2)c1N
[1]
  inhibition (INH): -26.65%
[2]
  inhibition (INH): 2.5%

## CN1CCN(C(=O)c2nnn(Cc3cc(Cl)c(C(=O)c4ccc(Cl)cc4)c(Cl)c3)c2N)CC1
[1]
  inhibition (INH): 36.62%
[2]
  inhibition (INH): 97%
[3]
  Selectivity Index: 0.38

## CCC(=O)Nc1c(C(N)=O)nnn1Cc1cc(Cl)c(C(=O)c2ccc(Cl)cc2)c(Cl)c1
[1]
  inhibition (INH): 47.39%
[2]
  inhibition (INH): 14.25%
[3]
  Selectivity Index: 3.33

## Nc1c(C(=O)NCCO)nnn1Cc1cc(Cl)c(C(=O)c2ccc(Cl)cc2)c(Cl)c1
[1]
  inhibition (INH): 72.28%
[2]
  inhibition (INH): 15.01%
[3]
  Selectivity Index: 4.85

## NC(=O)c1nnn(Cc2cc(Cl)c(C(=O)c3ccc(Cl)cc3)c(Cl)c2)c1NC(=O)c1ccco1
[1]
  inhibition (INH): 56.91%
[2]
  inhibition (INH): 21.44%
[3]
  Selectivity Index: 2.65

## NC(=O)c1cn(Cc2cc(Cl)c(C(=O)c3ccc(Cl)cc3)c(Cl)c2)nn1
[1]
  inhibition (INH): 50.67%
[2]
  inhibition (INH): 30.18%
[3]
  Selectivity Index: 1.68

## NC(=O)c1nnn(Cc2cc(Cl)c(C(=O)c3ccc(Cl)cc3)c(Cl)c2)c1NC(=O)c1ccccc1
[1]
  inhibition (INH): 46.29%
[2]
  inhibition (INH): 86.58%
[3]
  Selectivity Index: 0.53

## COC(=O)c1nnn(Cc2cc(Cl)c(C(=O)c3ccc(Cl)cc3)c(Cl)c2)c1N
[1]
  inhibition (INH): 18.59%
[2]
  inhibition (INH): -6.83%
[3]
  Selectivity Index: 2.72

## CC(=O)c1nnn(Cc2cc(Cl)c(C(=O)c3ccc(Cl)cc3)c(Cl)c2)c1N
[1]
  inhibition (INH): 39.49%
[2]
  inhibition (INH): 49.4%
[3]
  Selectivity Index: 0.8

## CC(C)C(=O)N(C(=O)C(C)C)c1c(C(N)=O)nnn1Cc1cc(Cl)c(C(=O)c2ccc(Cl)cc2)c(Cl)c1
[1]
  inhibition (INH): -22.3%
[2]
  inhibition (INH): 20.24%

## Nc1c(C(=O)NCCOCCOCCO)nnn1Cc1cc(Cl)c(C(=O)c2ccc(Cl)cc2)c(Cl)c1
[1]
  inhibition (INH): 42.65%
[2]
  inhibition (INH): 8.04%
[3]
  Selectivity Index: 5.3
